Results published in patent US8299097B2, “Methods for treating inflammatory disorders” (The Brigham and Women's Hospital, Inc., priority 2008, dated 2012).

Legend:
human P2Y12 [1] = target: T1, human P2Y12 (Homo sapiens, UniProt Q9H244); test: ERK activation (phosphorylation immunoblot) in P2Y12-expressing CHO cells; type: cell-based; parameters: polyhistidine (HIS) tag (C); expressed in transfected cells; settings: for ERK activation by agonist: stimulated 15 min
Description: FIG. 1. Activation by recombinant human P2Y12 receptors in response to cys-LTs. The human P2Y12 receptor cDNA was cloned in forward and reverse orientation into the expression vector pEF1/His B and transfected into CHO cells using Fugene HD reagent. Stably-expressing clones were selected using G418 (1000 μg/ml), and expression of the construct was confirmed by cytofluorographic detection of the HIS tag. 1A. […] Results in second experiment were identical. 1B. SDS-PAGE immunoblots showing phosphorylation of ERK2 by CHO cells stably expressing human P2Y12 receptors in reverse (negative control) or forward orientations. […] The blots were stripped and re-probed with an antibody (Ab) recognizing total ERK1 and ERK2. […] 1C. Effect of the selective P2Y12 receptor antagonist 2-MesAMP (MeS) on ligand-induced ERK phosphorylation. P2Y12 receptor expressing CHO cells were stimulated with the same doses of agonists used in 1A, in the absence or presence of 2-MesAMP (100 μM). 1D. Comparison of P2Y12 receptor-mediated responses to cys-LTs with those of recombinant human CysLT1R and CysLT2R expressed in CHO cells, and the effect of the CysLT1R antagonist MK571 (1 μM). Data in 1B-1D are from individual experiments that were repeated at least 3 times with similar results.
FIG. 8. […] Cells were stably transfected with the human P2Y12 construct and stimulated for 15 minutes with the indicated ligand concentrations. […] Results in a second experiment were similar.
(§1) A P2Y12 receptor cDNA was amplified by reverse transcriptase polymerase chain reaction (RT-PCR) from RNA extracted from primary hMCs and cloned into a mammalian expression vector. Expression was confirmed by detection of a histidine (HIS) tag by flow cytometry. Another cohort of CHO cells were stably transfected with a P2Y12 receptor construct in reverse orientation as a negative control. […] The cys-LT-induced ERK activation blocked by pre-treatment of the cells with pertussis toxin (PTX), was attenuated by treatment with the P2Y12 receptor-selective antagonist 2-methylthioadenosine monophosphate (2-MesAMP) (FIG. 1C), and was resistant to MK571, an inhibitor that blocks CysLT1R and some P2Y receptors (Mamedova, L., et al. 2005. Biochem. Pharmacol. 71:115-125). […] These responses were resistant to PTX and 2-MesAMP, and susceptible to MK571 in the case of the CysLT1R transfectants.
(§2) A human P2Y12 receptor cDNA was amplified by 30 cycles of PCR from reverse-transcribed total RNA extracted from primary cord blood hMCs. The primer sequences were 5′-[…] (SEQ ID NO: 1) and 3′-[…] (SEQ ID NO: 2). The fragment was cloned into a TA vector (INVITROGEN™). After verifying the nucleotide sequence, the fragment was subcloned into the multiple cloning site of the expression vector pEF1/His B, encoding a C-terminal polyhistidine (HIS) tag. […]

human P2Y12 [2] = target: T1, human P2Y12; test: Binding of cys-LTs to membranes of CHO cells stably expressing the human P2Y12 receptor; parameters: polyhistidine (HIS) tag (C); expressed in transfected cells
From the text: as §1
as §2, with “tag. A plasmid expressing the P2Y12 receptor construct in the forward orientation were transfected into CHO cells using Fugene HD reagent according to manufacturer's protocol. A construct in the reverse sequence was transfected in parallel as a negative control.” for “tag.”
[^3H] […] Protein concentration was determined using Biorad Protein Assay Kit. […] The residual membrane-associated [^3H] on the filter was determined in 2 ml scintillation fluid by beta counter (Perkin Elmer). For [^3H]ADP, specific binding was determined by subtracting the amount of [^3H] bound in the presence of 100 μM 2-MesADP from total binding.

T1 sequence (Q9H244 whole entry): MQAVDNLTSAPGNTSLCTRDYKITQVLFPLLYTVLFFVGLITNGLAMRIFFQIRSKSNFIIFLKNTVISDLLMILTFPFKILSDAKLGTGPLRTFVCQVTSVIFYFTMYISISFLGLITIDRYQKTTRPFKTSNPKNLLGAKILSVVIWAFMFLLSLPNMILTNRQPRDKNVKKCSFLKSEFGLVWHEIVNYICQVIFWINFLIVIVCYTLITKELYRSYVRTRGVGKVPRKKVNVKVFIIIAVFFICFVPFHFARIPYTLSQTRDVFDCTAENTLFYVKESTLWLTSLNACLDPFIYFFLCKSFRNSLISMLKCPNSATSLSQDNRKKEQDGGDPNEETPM

Structure (SMILES)	ERK activation by agonist (human P2Y12 [1])	binding to membranes of the transfectants (human P2Y12 [2])	Kd (human P2Y12 [2]; membranes of P2Y12 CHO transfectants, read-out: affinity constant) [nM]	effect on cys-LT-induced ERK activation (human P2Y12 [1]; 2-MesAMP 100 μM, MK571 1 μM)
CCCCC/C=C\C\C=C/C=C/C=C/[C@@H](SC[C@H](N)C(=O)NCC(=O)O)[C@@H](O)CCCC(=O)O [LTD4]	robust, dose-dependent ERK activation	also bound	–	–
CCCCC/C=C\C\C=C/C=C/C=C/[C@@H](SC[C@H](N)C(=O)O)[C@@H](O)CCCC(=O)O [LTE4]	robust, dose-dependent ERK activation	–	10	–
CN(C)C(=O)CCSC(SCCC(=O)O)c1cccc(/C=C/c2ccc3ccc(Cl)cc3n2)c1 (centres unmarked) [MK571]	–	–	–	resistant
